Assays:
MYLK = MYLK (Homo sapiens, UniProt Q15746); assay: KINOMEscan competition binding, single dose […]
DYRK1B = DYRK1B (Homo sapiens, UniProt Q9Y463); assay: KINOMEscan competition binding, single dose […]
ALK = ALK (Homo sapiens, UniProt Q9UM73); assay: KINOMEscan competition binding, single dose […]
CLK2 = CLK2 (Homo sapiens, UniProt P49760); assay: KINOMEscan competition binding, single dose […]
DYRK1A = DYRK1A (Homo sapiens, UniProt Q13627); assay: radiometric HotSpot kinase assay, […] ATP; format: biochemical
CLK1 = CLK1 (Homo sapiens, UniProt P49759); assay: KINOMEscan competition binding, single dose […]
ALK(C1156Y) = ALK(C1156Y) (Homo sapiens, UniProt Q9UM73, C1156Y); assay: KINOMEscan competition binding, single dose […]
Chain of ALK(C1156Y) (Q9UM73 1093-1411 C1156Y limits assumed): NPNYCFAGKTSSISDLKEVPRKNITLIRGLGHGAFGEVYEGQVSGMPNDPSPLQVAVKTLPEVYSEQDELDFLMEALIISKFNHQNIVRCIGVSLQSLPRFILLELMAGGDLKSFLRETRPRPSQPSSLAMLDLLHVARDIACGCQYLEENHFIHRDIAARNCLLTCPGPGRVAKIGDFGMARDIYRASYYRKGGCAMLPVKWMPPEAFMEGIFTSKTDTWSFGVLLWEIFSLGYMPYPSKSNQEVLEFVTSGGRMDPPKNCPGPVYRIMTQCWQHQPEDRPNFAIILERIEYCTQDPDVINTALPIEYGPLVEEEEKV

Chain of CLK1 (P49759 whole entry): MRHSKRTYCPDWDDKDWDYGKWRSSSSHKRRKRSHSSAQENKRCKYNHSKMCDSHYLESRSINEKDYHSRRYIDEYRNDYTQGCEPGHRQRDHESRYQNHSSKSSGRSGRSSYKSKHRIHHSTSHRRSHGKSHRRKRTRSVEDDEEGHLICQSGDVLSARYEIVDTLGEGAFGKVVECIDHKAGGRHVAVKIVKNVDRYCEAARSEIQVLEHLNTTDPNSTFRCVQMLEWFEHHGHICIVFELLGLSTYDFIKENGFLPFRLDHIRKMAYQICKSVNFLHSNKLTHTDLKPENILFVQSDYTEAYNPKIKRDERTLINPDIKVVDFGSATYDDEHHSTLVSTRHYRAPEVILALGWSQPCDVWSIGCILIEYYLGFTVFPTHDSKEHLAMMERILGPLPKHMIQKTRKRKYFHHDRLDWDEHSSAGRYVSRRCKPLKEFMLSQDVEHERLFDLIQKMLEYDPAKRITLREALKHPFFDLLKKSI
Chain of CLK2 (P49760 whole entry): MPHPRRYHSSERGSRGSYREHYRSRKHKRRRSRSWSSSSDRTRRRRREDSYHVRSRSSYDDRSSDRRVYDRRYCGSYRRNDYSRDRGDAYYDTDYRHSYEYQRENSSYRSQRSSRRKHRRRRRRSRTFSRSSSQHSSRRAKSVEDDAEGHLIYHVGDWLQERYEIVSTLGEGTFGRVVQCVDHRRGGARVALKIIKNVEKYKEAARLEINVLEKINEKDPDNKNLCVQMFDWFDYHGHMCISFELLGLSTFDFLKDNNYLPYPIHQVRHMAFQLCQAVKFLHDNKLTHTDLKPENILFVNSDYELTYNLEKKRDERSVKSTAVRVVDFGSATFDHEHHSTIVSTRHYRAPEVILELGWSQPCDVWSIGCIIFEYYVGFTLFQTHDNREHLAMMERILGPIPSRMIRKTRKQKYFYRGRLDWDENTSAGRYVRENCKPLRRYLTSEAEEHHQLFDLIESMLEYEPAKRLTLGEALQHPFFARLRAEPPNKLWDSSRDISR
Chain of DYRK1B (Q9Y463 whole entry): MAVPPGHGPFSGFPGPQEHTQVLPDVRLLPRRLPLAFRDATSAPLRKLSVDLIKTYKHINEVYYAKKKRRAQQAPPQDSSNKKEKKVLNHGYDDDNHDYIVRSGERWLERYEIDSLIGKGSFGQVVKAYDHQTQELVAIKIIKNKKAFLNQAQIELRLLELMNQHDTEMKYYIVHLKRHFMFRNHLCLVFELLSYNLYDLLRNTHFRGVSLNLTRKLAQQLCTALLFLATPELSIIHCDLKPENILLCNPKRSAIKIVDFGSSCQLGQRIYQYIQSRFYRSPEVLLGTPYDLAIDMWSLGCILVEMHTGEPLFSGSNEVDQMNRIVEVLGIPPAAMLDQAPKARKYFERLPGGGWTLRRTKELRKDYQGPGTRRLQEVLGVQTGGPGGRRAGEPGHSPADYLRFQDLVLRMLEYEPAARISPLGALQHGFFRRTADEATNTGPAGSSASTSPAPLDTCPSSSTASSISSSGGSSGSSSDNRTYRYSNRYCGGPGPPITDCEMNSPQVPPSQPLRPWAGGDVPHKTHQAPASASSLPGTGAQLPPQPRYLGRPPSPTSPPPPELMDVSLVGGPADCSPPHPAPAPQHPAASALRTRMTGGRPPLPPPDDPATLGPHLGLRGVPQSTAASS
Chain of ALK (Q9UM73 19-1620): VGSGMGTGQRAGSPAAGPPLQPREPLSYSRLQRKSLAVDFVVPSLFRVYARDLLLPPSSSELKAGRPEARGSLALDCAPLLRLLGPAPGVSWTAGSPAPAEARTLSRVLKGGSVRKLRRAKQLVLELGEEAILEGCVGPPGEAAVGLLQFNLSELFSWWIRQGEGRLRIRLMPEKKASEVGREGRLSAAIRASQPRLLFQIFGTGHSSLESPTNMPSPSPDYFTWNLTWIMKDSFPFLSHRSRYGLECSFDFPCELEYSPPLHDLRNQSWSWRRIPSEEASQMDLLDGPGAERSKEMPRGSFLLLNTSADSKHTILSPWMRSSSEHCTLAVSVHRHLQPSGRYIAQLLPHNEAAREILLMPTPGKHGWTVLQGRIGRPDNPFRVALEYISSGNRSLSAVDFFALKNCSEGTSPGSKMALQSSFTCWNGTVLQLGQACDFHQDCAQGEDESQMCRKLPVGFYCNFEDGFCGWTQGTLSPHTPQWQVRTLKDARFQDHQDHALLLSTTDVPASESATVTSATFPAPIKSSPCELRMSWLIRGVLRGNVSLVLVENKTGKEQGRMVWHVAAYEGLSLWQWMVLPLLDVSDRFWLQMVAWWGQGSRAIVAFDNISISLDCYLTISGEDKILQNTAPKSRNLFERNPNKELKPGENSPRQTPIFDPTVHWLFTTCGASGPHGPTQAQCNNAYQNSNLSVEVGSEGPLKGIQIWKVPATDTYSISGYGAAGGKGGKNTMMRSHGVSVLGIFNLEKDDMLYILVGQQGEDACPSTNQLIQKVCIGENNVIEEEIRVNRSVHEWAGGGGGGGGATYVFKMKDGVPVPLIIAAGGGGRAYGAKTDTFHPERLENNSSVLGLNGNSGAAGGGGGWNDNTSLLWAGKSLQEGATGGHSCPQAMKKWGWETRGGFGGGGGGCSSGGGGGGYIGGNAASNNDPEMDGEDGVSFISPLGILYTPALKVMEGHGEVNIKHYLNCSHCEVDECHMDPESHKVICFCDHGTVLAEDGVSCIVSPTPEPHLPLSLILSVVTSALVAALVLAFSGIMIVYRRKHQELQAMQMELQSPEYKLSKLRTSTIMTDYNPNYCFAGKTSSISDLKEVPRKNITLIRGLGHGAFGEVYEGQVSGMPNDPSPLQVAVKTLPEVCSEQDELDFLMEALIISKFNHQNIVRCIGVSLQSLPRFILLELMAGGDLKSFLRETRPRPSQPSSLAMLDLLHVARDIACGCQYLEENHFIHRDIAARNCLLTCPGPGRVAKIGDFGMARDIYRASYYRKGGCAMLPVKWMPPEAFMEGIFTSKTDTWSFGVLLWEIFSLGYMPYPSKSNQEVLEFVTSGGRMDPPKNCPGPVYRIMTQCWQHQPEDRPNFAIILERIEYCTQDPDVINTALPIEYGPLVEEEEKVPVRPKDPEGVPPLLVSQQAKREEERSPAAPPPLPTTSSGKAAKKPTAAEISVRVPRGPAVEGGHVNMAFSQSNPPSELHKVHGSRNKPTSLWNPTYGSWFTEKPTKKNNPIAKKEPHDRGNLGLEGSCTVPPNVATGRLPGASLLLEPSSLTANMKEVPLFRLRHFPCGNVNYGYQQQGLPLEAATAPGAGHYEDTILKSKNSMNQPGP

% of control unbound at 1 μM (MYLK): 7.8
% of control unbound at 1 μM (DYRK1B): 1.8
% of control unbound at 1 μM (ALK): 3.5
% of control unbound at 1 μM (CLK2): 3.3
IC50 (DYRK1A): 2.9 nM
% of control unbound at 1 μM (CLK1): 1.1
% of control unbound at 1 μM (ALK(C1156Y)): 2.5
Substance: FRTX-02
